Read-outs that look alike come from different tables or passages of the source.
Key:
recombinant human CD73 = molecular target: T1, recombinant human CD73 (Homo sapiens, UniProt P21589); experiment: CD73 in vitro enzymatic assay (colorimetric 630 nm); assay type: biochemical; settings: TABLE 89
T1 construct: purchased BPS Bioscience 71184 (enzyme); kit #72055
T1 sequence (P21589 27-549): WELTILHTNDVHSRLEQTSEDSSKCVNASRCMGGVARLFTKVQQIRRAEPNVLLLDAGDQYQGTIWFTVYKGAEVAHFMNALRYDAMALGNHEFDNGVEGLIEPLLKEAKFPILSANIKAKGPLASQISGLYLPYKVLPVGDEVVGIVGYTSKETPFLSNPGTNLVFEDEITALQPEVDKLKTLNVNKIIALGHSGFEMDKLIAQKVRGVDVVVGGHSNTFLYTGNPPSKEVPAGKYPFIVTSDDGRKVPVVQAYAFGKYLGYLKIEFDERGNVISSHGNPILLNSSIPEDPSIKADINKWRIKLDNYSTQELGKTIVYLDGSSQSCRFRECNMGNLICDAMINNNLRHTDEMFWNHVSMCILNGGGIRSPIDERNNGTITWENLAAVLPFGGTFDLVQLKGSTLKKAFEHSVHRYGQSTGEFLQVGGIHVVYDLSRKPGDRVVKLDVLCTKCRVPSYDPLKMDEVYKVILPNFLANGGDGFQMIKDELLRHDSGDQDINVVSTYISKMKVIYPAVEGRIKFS
Text: Here, D5 is the Yellow Blend, D9 is the Purple Blend, D21 is the Green Blend, D13 is the Red Blend, and D31 is CBD. As before, the red blend included Apple Extract, Pomegranate Extract, Tomato Powder, Beet; the green blend included Olive Extract, Rosemary Extract, Green Coffee Bean Extract, Kale; the orange/yellow blend included Onion Extract, Ginger Extract, Grapefruit Extract, Carrot; and the purple/blue blend included Grape, Blueberry Extract, Currant, Elderberry.
Assay Conditions: In general, all assays points were done by following the CD39 and CD73 Inhibitor Screening Assay Kit protocol (BPS Bioscience, #79278 and 72055, respectively). The CD73 enzymatic reactions were conducted in duplicate at room temperature for 30 minutes in a 50 μl mixture containing assay buffer, […], CD73 enzymes, and the test compound. Test compounds were preincubated with the enzyme for 30 minutes. Reactions were started by addition of the substrate. The 50 μl reactions were carried out in a 96-well transparent plate. After enzymatic reactions, 100 μl of Colorimetric Detection Reagent was added to the reaction mix. After a 15 minutes incubation, absorbance was measured using a Tecan plate reader at 630 nm.
Data Analysis: Enzyme activity assays were performed in duplicates at each concentration. The Absorbance intensity data were analyzed and compared. In the absence of the compound, the intensity in each data set was defined as 100% (Ce) activity. In the absence of enzyme, the intensity in each data set was defined as 0% (C0) activity.

recombinant human CD39 = molecular target: T2, recombinant human CD39 (Homo sapiens, UniProt P49961); experiment: CD39 in vitro enzymatic assay (ATP, colorimetric 630 nm); assay type: biochemical;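 further: test compound preincubated 30 min with enzyme, then 30 min reaction with ATP at room temperature, absorbance after detection reagent, 100% activity without compound, 0% without enzyme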
T2 construct: purchased BPS Bioscience 71284 (enzyme); kit #79278
T2 sequence (P49961 1-510): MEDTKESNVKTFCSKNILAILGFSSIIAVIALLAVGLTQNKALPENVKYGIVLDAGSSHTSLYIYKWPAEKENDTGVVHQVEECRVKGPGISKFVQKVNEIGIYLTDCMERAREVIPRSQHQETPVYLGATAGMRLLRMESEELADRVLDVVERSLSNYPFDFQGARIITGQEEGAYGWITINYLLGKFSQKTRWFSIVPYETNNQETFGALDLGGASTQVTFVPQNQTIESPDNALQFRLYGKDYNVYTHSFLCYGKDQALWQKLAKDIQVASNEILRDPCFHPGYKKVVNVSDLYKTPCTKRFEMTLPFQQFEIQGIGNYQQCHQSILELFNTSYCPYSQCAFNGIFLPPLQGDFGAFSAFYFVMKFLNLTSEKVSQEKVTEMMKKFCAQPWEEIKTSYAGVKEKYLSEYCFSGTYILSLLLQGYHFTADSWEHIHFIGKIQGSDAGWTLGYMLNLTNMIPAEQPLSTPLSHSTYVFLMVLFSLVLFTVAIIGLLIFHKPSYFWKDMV
Experimental: The CD39 enzymatic reactions were conducted in duplicate at room temperature for 30 minutes in a 50 μl mixture containing assay buffer, ATP, CD39 enzymes, and the test compound. Test compounds were preincubated with the enzyme for 30 minutes. Reactions were started by addition of the substrate. The 50 μl reactions were carried out in a 96-well transparent plate. After enzymatic reactions, 100 μl of Colorimetric Detection Reagent was added to the reaction mix. After a 15 minutes incubation, absorbance was measured using a Tecan plate reader at 630 nm.

With `O=c1c(O)c(-c2ccc(O)c(O)c2)oc2cc(O)cc(O)c12` [Quercetin] as the compound, how does the “Net absorbance Rep. 1” value (recombinant human CD73; 1 μM) read?
The value was 0.40.

And the “Net absorbance Rep. 2” value (recombinant human CD73; 1 μM)?
The value was 0.36.

What about the inhibition at 1 µM (recombinant human CD73; 1 μM) of the same compound?
Its inhibition at 1 µM is 13%.

What about the activity at 1 µM (recombinant human CD73; 1 μM, read-out: Activity (%) Rep. 1) of the same compound?
Its activity at 1 µM is 92%.

And the activity at 1 µM (recombinant human CD73; 1 μM, read-out: Activity (%) Rep. 2)?
The activity at 1 µM was 82%.

What about the “Net absorbance Rep. 1” value (recombinant human CD73; 10 μM) of the same compound?
The value was 0.23.

What about the “Net absorbance Rep. 2” value (recombinant human CD73; 10 μM) of the same compound?
The value was 0.25.

And the inhibition at 10 µM (recombinant human CD73; 10 μM)?
Its inhibition at 10 µM is 44%.

And the activity at 10 µM (recombinant human CD73; 10 μM, read-out: Activity (%) Rep. 1)?
The activity at 10 µM was 53%.

What about the activity at 10 µM (recombinant human CD73; 10 μM, read-out: Activity (%) Rep. 2) of the same compound?
The activity at 10 µM was 58%.

What about the “Net absorbance Rep. 1” value (recombinant human CD73; 100 μM) of the same compound?
The value was 0.12.

What about the “Net absorbance Rep. 2” value (recombinant human CD73; 100 μM) of the same compound?
The value was 0.08.

What about the inhibition at 100 µM (recombinant human CD73; 100 μM) of the same compound?
Its inhibition at 100 µM is 78%.

And the activity at 100 µM (recombinant human CD73; 100 μM, read-out: Activity (%) Rep. 1)?
Its activity at 100 µM is 27%.

And the activity at 100 µM (recombinant human CD73; 100 μM, read-out: Activity (%) Rep. 2)?
Its activity at 100 µM is 17%.

Which results are given for POM-1?
Activity (%) Rep. 1 (recombinant human CD39; 0.001 μM, TABLE 79): 79%; Activity (%) Rep. 2 (recombinant human CD39; 0.001 μM, TABLE 79): 78%; CD39 Inhibition (%) (recombinant human CD39; 0.001 μM, TABLE 79): 21%; Net absorbance Rep. 1 (recombinant human CD39; 0.001 μM, TABLE 79): 0.42; Net absorbance Rep. 2 (recombinant human CD39; 0.001 μM, TABLE 79): 0.41; Activity (%) Rep. 1 (recombinant human CD39; 0.001 μM, TABLE 80): 99%; Activity (%) Rep. 2 (recombinant human CD39; 0.001 μM, TABLE 80): 90%; Inhibition (%) (recombinant human CD39; 0.001 μM, TABLE 80): 5%; Net absorbance Rep. 1 (recombinant human CD39; 0.001 μM, TABLE 80): 0.281; Net absorbance Rep. 2 (recombinant human CD39; 0.001 μM, TABLE 80): 0.254; Activity (%) Rep. 1 (recombinant human CD39; 0.001 μM, TABLE 81): 96%; Activity (%) Rep. 2 (recombinant human CD39; 0.001 μM, TABLE 81): 92%; Inhibition (%) (recombinant human CD39; 0.001 μM, TABLE 81): 6%; Net absorbance Rep. 1 (recombinant human CD39; 0.001 μM, TABLE 81): 0.51; Net absorbance Rep. 2 (recombinant human CD39; 0.001 μM, TABLE 81): 0.49; Activity (%) Rep. 1 (recombinant human CD39; 0.001 μM, TABLE 83): 86%; Activity (%) Rep. 2 (recombinant human CD39; 0.001 μM, TABLE 83): 89%; Inhibition (%) (recombinant human CD39; 0.001 μM, TABLE 83): 13%; Net absorbance Rep. 1 (recombinant human CD39; 0.001 μM, TABLE 83): 0.25; Net absorbance Rep. 2 (recombinant human CD39; 0.001 μM, TABLE 83): 0.26; Activity (%) Repeat 1 (recombinant human CD39; 0.001 μM, TABLE 85): 85%; Activity (%) Repeat 2 (recombinant human CD39; 0.001 μM, TABLE 85): 89%; Inhibition (%) (recombinant human CD39; 0.001 μM, TABLE 85): 13%; Net Signal (Absorbance) Repeat 1 (recombinant human CD39; 0.001 μM, TABLE 85): 0.27; Net Signal (Absorbance) Repeat 2 (recombinant human CD39; 0.001 μM, TABLE 85): 0.29; Activity (%) Rep. 1 (recombinant human CD39; 0.01 μM, TABLE 79): 49%; Activity (%) Rep. 2 (recombinant human CD39; 0.01 μM, TABLE 79): 56%; CD39 Inhibition (%) (recombinant human CD39; 0.01 μM, TABLE 79): 47%; Net absorbance Rep. 1 (recombinant human CD39; 0.01 μM, TABLE 79): 0.26; Net absorbance Rep. 2 (recombinant human CD39; 0.01 μM, TABLE 79): 0.30; Activity (%) Rep. 1 (recombinant human CD39; 0.01 μM, TABLE 80): 54%; Activity (%) Rep. 2 (recombinant human CD39; 0.01 μM, TABLE 80): 51%; Inhibition (%) (recombinant human CD39; 0.01 μM, TABLE 80): 47%; Net absorbance Rep. 1 (recombinant human CD39; 0.01 μM, TABLE 80): 0.154; Net absorbance Rep. 2 (recombinant human CD39; 0.01 μM, TABLE 80): 0.145; Activity (%) Rep. 1 (recombinant human CD39; 0.01 μM, TABLE 81): 36%; Activity (%) Rep. 2 (recombinant human CD39; 0.01 μM, TABLE 81): 37%; Inhibition (%) (recombinant human CD39; 0.01 μM, TABLE 81): 64%; Net absorbance Rep. 1 (recombinant human CD39; 0.01 μM, TABLE 81): 0.19; Net absorbance Rep. 2 (recombinant human CD39; 0.01 μM, TABLE 81): 0.20; Activity (%) Rep. 1 (recombinant human CD39; 0.01 μM, TABLE 83): 67%; Activity (%) Rep. 2 (recombinant human CD39; 0.01 μM, TABLE 83): 66%; Inhibition (%) (recombinant human CD39; 0.01 μM, TABLE 83): 33%; Net absorbance Rep. 1 (recombinant human CD39; 0.01 μM, TABLE 83): 0.20; Net absorbance Rep. 2 (recombinant human CD39; 0.01 μM, TABLE 83): 0.19; Activity (%) Repeat 1 (recombinant human CD39; 0.01 μM, TABLE 85): 65%; Activity (%) Repeat 2 (recombinant human CD39; 0.01 μM, TABLE 85): 68%; Inhibition (%) (recombinant human CD39; 0.01 μM, TABLE 85): 34%; Net Signal (Absorbance) Repeat 1 (recombinant human CD39; 0.01 μM, TABLE 85): 0.21; Net Signal (Absorbance) Repeat 2 (recombinant human CD39; 0.01 μM, TABLE 85): 0.22; Activity (%) Rep. 1 (recombinant human CD39; 0.1 μM, TABLE 79): 14%; Activity (%) Rep. 2 (recombinant human CD39; 0.1 μM, TABLE 79): 19%; CD39 Inhibition (%) (recombinant human CD39; 0.1 μM, TABLE 79): 84%; Net absorbance Rep. 1 (recombinant human CD39; 0.1 μM, TABLE 79): 0.08; Net absorbance Rep. 2 (recombinant human CD39; 0.1 μM, TABLE 79): 0.10; Activity (%) Rep. 1 (recombinant human CD39; 0.1 μM, TABLE 80): 26%; Activity (%) Rep. 2 (recombinant human CD39; 0.1 μM, TABLE 80): 26%; Inhibition (%) (recombinant human CD39; 0.1 μM, TABLE 80): 74%; Net absorbance Rep. 1 (recombinant human CD39; 0.1 μM, TABLE 80): 0.073; Net absorbance Rep. 2 (recombinant human CD39; 0.1 μM, TABLE 80): 0.073; Activity (%) Rep. 1 (recombinant human CD39; 0.1 μM, TABLE 81): 16%; Activity (%) Rep. 2 (recombinant human CD39; 0.1 μM, TABLE 81): 10%; Inhibition (%) (recombinant human CD39; 0.1 μM, TABLE 81): 87%; Net absorbance Rep. 1 (recombinant human CD39; 0.1 μM, TABLE 81): 0.08; Net absorbance Rep. 2 (recombinant human CD39; 0.1 μM, TABLE 81): 0.06; Activity (%) Rep. 1 (recombinant human CD39; 0.1 μM, TABLE 83): 30%; Activity (%) Rep. 2 (recombinant human CD39; 0.1 μM, TABLE 83): 29%; Inhibition (%) (recombinant human CD39; 0.1 μM, TABLE 83): 70%; Net absorbance Rep. 1 (recombinant human CD39; 0.1 μM, TABLE 83): 0.09; Net absorbance Rep. 2 (recombinant human CD39; 0.1 μM, TABLE 83): 0.09; Activity (%) Repeat 1 (recombinant human CD39; 0.1 μM, TABLE 85): 39%; Activity (%) Repeat 2 (recombinant human CD39; 0.1 μM, TABLE 85): 38%; Inhibition (%) (recombinant human CD39; 0.1 μM, TABLE 85): 61%; Net Signal (Absorbance) Repeat 1 (recombinant human CD39; 0.1 μM, TABLE 85): 0.13; Net Signal (Absorbance) Repeat 2 (recombinant human CD39; 0.1 μM, TABLE 85): 0.13
